Here are results for two substances from PMC9220408, “Enhanced Antibacterial Activity of Dermaseptin through Its Immobilization on Alginate Nanoparticles—Effects of Menthol and Lactic Acid on Its Potentialization” (Antibiotics, 2022).

Ends that are not written are not given here.

For data set [1], the system named is MCF-7 (breast cancer) cells. To be noted: MCF-7, inhibition of thymidine incorporation; cited from earlier work. An excerpt:
Of note, though many peptides endowed with biological functions, such as inhibitory activities, could be hemolytic, their combination with nanoparticles frequently allows them to discard this adverse trait. Charpentier et al. focused on the cytotoxicity of dermaseptin B3 and B4 on mammalian cells. These authors evaluated dermaseptin B3 and B4 abilities to inhibit thymidine incorporation into transformed human MCF-7 (breast cancer) cells. The results obtained unveiled 50% cytotoxicity when DRS-B3 was used at 27.8 µg/mL (10 µM). However, Galanth et al. reported that wh ...
In general terms: Uptake of a labelled nucleoside into DNA is a usual measure of proliferation.

Data set [2] has as its system E. coli 184. Format: cell-based, Escherichia coli. To be noted: broth microdilution, Mueller-Hinton broth, 24 h, 37 °C, OD 600 nm, triplicate; MIC as lowest concentration of DRS-B2 peptide; colistin-resistant strain (mcr-1). As to the method:
(§1) The Escherichia coli (E. coli) strains used in this study included E. coli ATCC 8739 and E. coli 184, which is resistant to colistin. […] E. coli strains were grown at 37 °C in Brain Heart Infusion (BHI) medium (Sigma-Aldrich, St. Louis, MA, USA).
(§2) The minimum inhibitory concentration (MIC) of the aforementioned formulations was determined in triplicate in 96-well microtiter plates using the broth microdilution method. Fresh colonies of E. coli were sub-cultured in Mueller–Hinton broth (Sigma-Aldrich) and were grown at 37 °C overnight on a rotary shaker at 160 rpm. […] The plates were incubated for 24 h at 37 °C, and inhibition of growth was measured at 600 nm with a spectrophotometer ELx808^tm (BioTek, Winoosky, VT, USA).
On the technique in general: Broth dilution looks for growth in wells or tubes with falling amounts of substance.

Data set [3] relates to E. coli ATCC 8739. Format: cell-based, Escherichia coli. The following applies: broth microdilution, Mueller-Hinton broth, 24 h, 37 °C, OD 600 nm, triplicate; MIC as lowest concentration of DRS-B2 peptide; colistin-sensitive strain. As to the method:
as §1, §2

Data set [4] has as its system E. coli 184. As to the method:
as §2
The ability of these new formulations to resist the conditions of the gastrointestinal tract (GIT) environment was determined as previously described. […]
To this end, we used pepsin, a digestive enzyme from the stomach, and active at pH 3, trypsin and chymotrypsin, which are synthesized in the pancreas and secreted in the small intestine, active between pH 6 and pH 8.

In data set [5] the test system is IPEC-1 cells. The data set is described as follows: Cytotoxicity assay (CCK8). The following applies: 24 h, 37 °C, CCK8, % of non-treated cells. As to the method:
The cytotoxicity assay was performed as previously reported. Briefly, human colon carcinoma (HT29) and porcine intestinal (IPEC-1) cells (Sigma-Aldrich) were cultivated in Dulbecco’s Modified Eagle Medium (DMEM, Gibco, Thermo Fisher, Waltham, MA, USA) in 96-well-tissue culture plates for 48–72 h at 37 °C, in atmosphere containing 5% CO2, until the formation of a continuous confluent cell culture on the bottom of each well. […] The required concentrations were prepared in DMEM without antibiotics and serum and were added to the HT29/IPEC-1 cells in the wells, after washing with the same medium. The treated cells were then incubated for 24 h at 37 °C, in atmosphere containing 5% CO2. To assess the cell viability of the treated HT29/IPEC-1 cells, CCK8 assay (Dojindo Molecular Technologies, Tokyo, Japan) was realized according to the supplier recommendations. An amount of 150 µL of DMEM containing 7.5 µL of CCK-8 reagents were added to each well, and cells were incubated for 2 h. Plates were read at 450 nm in a microplate reader spectrophotometer (Xenius, Safas, Monaco).

A short description of data set [6]: Size (DLS) and zeta potential. Format: physicochemical. To be noted: pH 6.3; Alg NPs 500 µg/mL, DRS-B2 40 µg/mL. As to the method:
The concentration of Alg NPs has been set to 500 µg/mL in order to allow a good dispersion and avoid any aggregation or sedimentation that could interfere with the adsorption. […]

The test system of data set [7] is CHO (Chinese Hamster Ovary) cells. The following applies: DRS-B2 at 39.7 µg/mL (10 µM); cited from earlier work.

dermaseptin B3 [DRS-B3]: in data set [1], the “concentration giving 50% cytotoxicity” value was 27800 ng/mL.
Take “GLWSKIKEVGKEAAKAAAKAAGKAALGAVSEAV-NH2 [DRS-B2, Dermaseptin B2]”: the “MIC E. coli 184” value in data set [2] was determined as 7.5 µg/mL. Besides, in data set [3], the “MIC E. coli ATCC8739” value was determined as 3.75 µg/mL. Further, the “MICs of DRS-B2, Treatment with Pepsin” value in data set [4] (30 min at pH 3 with pepsin (15 U/mL) and then 2 h at pH 6, 20 mM PBS, 39 °C at 140 rpm) is not below 10 µg/mL. The “MICs of DRS-B2, Treatment with Digestive Enzymes” value in data set [4] (30 min at pH 3 with pepsin (15 U/mL) and then 2 h at pH 6 with trypsin (40 U/µL) + chymotrypsin (5 U/mL), 20 mM PBS, 39 °C at 140 rpm) is not below 10 µg/mL. Besides, the “MICs of DRS-B2, Treatment with pH Variation Only” value in data set [4] (incubation 30 min at pH 3 and then 2 h at pH 6, 20 mM PBS, 39 °C at 140 rpm, no enzymes) stood at 10 µg/mL. Moreover, the “MICs of DRS-B2, Without Treatment” value in data set [4] (no physical or enzymatic treatment) is 7.5 µg/mL. Also, the “percentage of survival of IPEC-1 cell line” value was 87% in data set [5] (DRS-B2 at 30 µg/mL (alone or adsorbed on Alg NPs)) and 68% in data set [5] (DRS-B2 at 125 µg/mL (alone or adsorbed on Alg NPs)). For the same substance, the “Zeta Potential (ζ)” value in data set [6] is “+23 mV”. Moreover, the “toxic effect on CHO cells (in words)” value in data set [7] is recorded as “not any toxic effect”.
